Data published in PMC7394586 (OncoTargets and therapy, 2020).

Assays:
MHCC97-H cells [1] = experiment: MTT cell survival assay; format: cell-based, human; conditions: for change of IC50 on MHCC97-H cells on overexpression of miR-3609: miR-3609 overexpression versus control
[2] = Cell-based metabolism/clearance of sorafenib; format: in vitro ADME, human; conditions: human, MHCC97-H cells, Half-Life Time (t1/2, h), MHCC97-H, Cell-based, 1 μmol/L sorafenib
MHCC97-H cells [3] = experiment: Cell-based metabolism/clearance of sorafenib; format: in vitro ADME, human; conditions: LC-MS/MS, cultured HCC cells
[4] = test system: MHCC97-H subcutaneous tumors; experiment: Tumor-based clearance of sorafenib in subcutaneous tumors; format: in vivo, nude mice; conditions: Control, sorafenib injected into subcutaneous tumors
[5] = test system: PDC No. 1 subcutaneous tumors; experiment: as above; format: in vivo, nude mice; conditions: PDC No. 1, Tumor-based, Control; sorafenib injected into subcutaneous tumors
[6] = test system: PDC No. 3 subcutaneous tumors; experiment: as above; format: in vivo, nude mice; conditions: PDC No. 3, Tumor-based, miR-3609; sorafenib injected into subcutaneous tumors
[7] = test system: MHCC97-H subcutaneous growth; experiment: Antitumor effect in vivo, subcutaneous tumor model; design: species or system nude mice; conditions: for IC50 values of Soarfenib on Subcutaneous Tumor Weights: MHCC97-H, oral administration every 2 days, 10 treatments
[8] = test system: PDC No. 1 subcutaneous growth; experiment: Antitumor effect in vivo, subcutaneous tumor model; design: species or system nude mice; conditions: oral administration every 2 days, 10 treatments
[9] = test system: PDC No. 2 subcutaneous growth; experiment: Antitumor effect in vivo, subcutaneous tumor model; design: species or system nude mice; conditions: oral administration every 2 days, 10 treatments
[10] = test system: PDC No. 3 subcutaneous growth; experiment: Antitumor effect in vivo, subcutaneous tumor model; design: species or system nude mice; conditions: oral administration every 2 days, 10 treatments
[11] = test system: PDC No. 4 subcutaneous growth; experiment: Antitumor effect in vivo, subcutaneous tumor model; design: species or system nude mice; conditions: oral administration every 2 days, 10 treatments
[12] = test system: PDC No. 5 subcutaneous growth; experiment: Antitumor effect in vivo, subcutaneous tumor model; design: species or system nude mice; conditions: oral administration every 2 days, 10 treatments
[13] = Clinical outcome of advanced HCC patients who received sorafenib treatment; format: in vivo, human
[14] = patients with EPAS-1 mRNA expression High (n = 26)
[15] = patients with EPAS-1 mRNA expression Low (n = 26)
[16] = patients with miR-3609 expression High (n = 26)
[17] = patients with miR-3609 expression Low (n = 26)

CNC(=O)c1cc(Oc2ccc(NC(=O)Nc3ccc(Cl)c(C(F)(F)F)c3)cc2)ccn1 [sorafenib]
survival of MHCC97-H cells (MHCC97-H cells [1]; 0.01-10 μmol/L): inhibited the survival of MHCC97-H cells in a dose-dependent manner
change of IC50 on MHCC97-H cells on overexpression of miR-3609 (MHCC97-H cells [1]): decreased
half-life at 1 μmol/L ([2]; Control): 18.6 ± 2.46 h
half-life at 1 μmol/L ([2]; miR-3609 + EPAS-1^Mut): 18 ± 3.18 h
half-life at 1 μmol/L ([2]; miR-3609): 37.1 ± 6.12 h
metabolism and clearance in HCC cells (MHCC97-H cells [3]): gradually metabolized and cleared
Half-Life Time (t1/2, h) [4]: 30.73 ± 6.46 h
Half-Life Time (t1/2, h) [5]: 26.32 ± 6.91 h
Half-Life Time (t1/2, h) [6]: 50.73 ± 4.02 h
IC50 values of Soarfenib on Subcutaneous Tumor Weights ([7]; Control): 2.25 ± 0.44 mg/kg
IC50 values of Soarfenib on Subcutaneous Tumor Weights ([7]; miR-3609 + EPAS-1^Mut): 2.51 ± 0.52 mg/kg
IC50 values of Soarfenib on Subcutaneous Tumor Weights ([7]; miR-3609): 0.15 ± 0.02 mg/kg
subcutaneous growth of MHCC97-H cells ([7]; nude mice, oral administration): inhibited the subcutaneous growth of MHCC97-H cells in a dose-dependent manner
IC50 values of Soarfenib on Subcutaneous Tumor Weights ([8]; PDC No. 1, Control): ~3 mg/kg
IC50 values of Soarfenib on Subcutaneous Tumor Weights ([8]; PDC No. 1, miR-3609 + EPAS-1^Mut): >3 mg/kg
IC50 values of Soarfenib on Subcutaneous Tumor Weights ([8]; PDC No. 1, miR-3609): 0.87 ± 0.39 mg/kg
IC50 values of Soarfenib on Subcutaneous Tumor Weights ([9]; PDC No. 2, Control): 1.77 ± 0.20 mg/kg
IC50 values of Soarfenib on Subcutaneous Tumor Weights ([9]; PDC No. 2, miR-3609 + EPAS-1^Mut): 2.20 ± 0.45 mg/kg
IC50 values of Soarfenib on Subcutaneous Tumor Weights ([9]; PDC No. 2, miR-3609): 0.48 ± 0.10 mg/kg
IC50 values of Soarfenib on Subcutaneous Tumor Weights ([10]; PDC No. 3, Control): 1.99 ± 0.54 mg/kg
IC50 values of Soarfenib on Subcutaneous Tumor Weights ([10]; PDC No. 3, miR-3609 + EPAS-1^Mut): 1.81 ± 0.41 mg/kg
IC50 values of Soarfenib on Subcutaneous Tumor Weights ([10]; PDC No. 3, miR-3609): 0.30 ± 0.04 mg/kg
IC50 values of Soarfenib on Subcutaneous Tumor Weights ([11]; PDC No. 4, Control): 2.70 ± 0.70 mg/kg
IC50 values of Soarfenib on Subcutaneous Tumor Weights ([11]; PDC No. 4, miR-3609 + EPAS-1^Mut): 2.76 ± 0.62 mg/kg
IC50 values of Soarfenib on Subcutaneous Tumor Weights ([11]; PDC No. 4, miR-3609): 0.95 ± 0.60 mg/kg
IC50 values of Soarfenib on Subcutaneous Tumor Weights ([12]; PDC No. 5, Control): 2.88 ± 0.39 mg/kg
IC50 values of Soarfenib on Subcutaneous Tumor Weights ([12]; PDC No. 5, miR-3609 + EPAS-1^Mut): 2.32 ± 0.69 mg/kg
IC50 values of Soarfenib on Subcutaneous Tumor Weights ([12]; PDC No. 5, miR-3609): 0.66 ± 0.21 mg/kg
OS (overall survival) [13, 14]: 11.0 M
TTP (time to progress) [13, 14]: 8.0 M
OS (overall survival) [13, 15]: 16.0 M
TTP (time to progress) [13, 15]: 13.0 M
OS (overall survival) [13, 16]: 15.0 M
TTP (time to progress) [13, 16]: 12.0 M
OS (overall survival) [13, 17]: 12.0 M
TTP (time to progress) [13, 17]: 8.0 M

N#CC1(c2ccc(NC(=O)c3cccnc3NCc3ccncc3)cc2)CCCC1 [apatinib]
change of IC50 on MHCC97-H cells on overexpression of miR-3609 (MHCC97-H cells [1]): decreased

COc1cc2nccc(Oc3ccc(NC(=O)NC4CC4)c(Cl)c3)c2cc1C(N)=O [lenvatinib]
change of IC50 on MHCC97-H cells on overexpression of miR-3609 (MHCC97-H cells [1]): decreased

COc1cc2c(Oc3ccc4[nH]c(C)cc4c3F)ccnc2cc1OCC1(N)CC1 [anlotinib]
change of IC50 on MHCC97-H cells on overexpression of miR-3609 (MHCC97-H cells [1]): decreased

CNC(=O)c1cc(Oc2ccc(NC(=O)Nc3ccc(Cl)c(C(F)(F)F)c3)c(F)c2)ccn1 [regorafenib]
change of IC50 on MHCC97-H cells on overexpression of miR-3609 (MHCC97-H cells [1]): decreased
